Data as given in paper PMC10861593, “Kisspeptin-10 binding to Gpr54 in osteoclasts prevents bone loss by activating Dusp18-mediated dephosphorylation of Src” (Nature Communications, 2024).
Entries after “also recorded” stand apart in the source; their conditions may differ.

Experiments:
[1] = tested on: giant cell tumor of bone (GCT) cells; assay: TRAP assay of osteoclast formation in human giant cell tumor of bone (GCT) cells; type: cell-based; details: Kp-10 5–7 days
Procedure: BMMs (5 × 10^3 cells/well) were seeded into 96-well plates with a bone slice and incubated with M-CSF (10 ng/ml) and RANKL (50 ng/ml) with or without Kp-10, and the culture medium was changed every other day for 5–7 days. Osteoclasts were fixed and stained by phalloidin and DAPI. “Pits” on bone slice after osteoclast resorption were fixed with 4% Glutaraldehyde and stained with 1% toluidine blue, and pit depth was examined by laser-scanning confocal microscopy. For primary cultures of giant-cell tumor of bone (GCTB) cells, the use of all patient-derived tumor specimens was approved by the Institutional Review Board and the research ethics committee of Shanghai Changzheng Hospital, which appeared in the proceedings of the meeting of the Ethics Committee on 18 November 2014 (report number: 2014090). Informed consent obtained from all tissue donors was written. The GCTB cells were isolated from tumor samples derived from tumor resections in Shanghai Changzheng Hospital, 1 × 10^6 GCTB cells were seeded in a 24-well plate. Cells were stimulated with indicated doses of Kp-10 for 5–7 days. The medium was changed every 2 days. Osteoclasts were fixed and stained using the TRAP-staining kit (Sigma-Aldrich, 387A-1KT).

[2] = tested on: Gpr54, Src and Dusp18 co-localization; assay: IF staining / TIRF microscopy co-localization in pre-osteoclasts; type: cell-based, mouse; details: 10 nM Kp-10 20 min
Procedure: For endogenous IF staining, BMMs were seeded on confocal dishes and induced by 50 ng/ml RANKL and 10 ng/ml M-CSF for 2 days, and subsequently incubated with or without Kp-10 for 20 min. Cells were fixed in 10% TCA and incubated with anti-Gpr54 (Cell Signaling Technologies, 13776, 1:100), anti-Dusp18 (Santa Cruz., sc-376923, 1:100), or anti-Src (Cell Signaling Technologies, 2110, 1:400) or anti-Src (Cell Signaling Technologies, 2109, 1:400) overnight. IF staining of membrane colocation of Gpr54 with Src or Dusp18, and Src with Dusp18 were detected by Alexa Fluor™ 594 Tyramide SuperBoost™ Kit (Invitrogen, B40925) and Alexa Fluor™ 488 Tyramide SuperBoost™ Kit (Invitrogen, B40912) according to manufacturer’s instructions. The images were obtained by total internal reflection fluorescence (TIRF) microscopy (Ti2-E + H-TIRF, Nikon).

[3] = tested on: phosphatases co-immunoprecipitated with Gpr54; assay: mass spectrometry of anti-Gpr54 IP; type: cell-based, mouse; details: RAW264.7 cells, Kp-10 20 min
Procedure: For mass spectrometry (MS) analysis, anti-Gpr54 IP was performed with the whole-cell lysates derived from two 10-cm dishes of RAW264.7 cells with or without Kp-10 treatment for 20 min. The protein complexes after Co-IP were extensively washed with PBS, followed by on-bead digestion. Mass spectra were acquired on a Q-Exactive mass spectrometer (Thermo Scientific, Bremen, Germany). The raw mass spectrometry data were searched against the mouse IPI databases (version 3.86, released on June 28, 2012) using the Proteome Discoverer software suite (Thermo Scientific, San Jose, USA) utilizing a label-free quantification feature. The mass spectrometry proteomics data have been deposited to the ProteomeXchange Consortium via the PRIDE[52] partner repository with the dataset identifier PXD038433.

Src (Y416) = assay: IB of Src (Y416) phosphorylation in BMMs / osteoclasts; type: cell-based, mouse; details: for Src phosphorylation: Kp-10 20 min; for phosphorylation of Src (Y416): indicated dose of Kp-10 for 1 h; for phosphorylation of Src: Kp-10 1 h
Procedure: Fig. 1 Kp-10 /Gpr54 governs osteoclasts formation and bone resorption mainly via suppression of Src phosphorylation. a–d IB analysis of whole cell lysates (WCL) derived from BMMs isolated from eight-week-old wild-type (WT) and Gpr54^−/− mice. BMMs were starved in serum-free α-MEM for 4 h and then treated with 100 ng/mL RANKL for different time (a) and quantification of protein levels (b), incubated with indicated dose of Kp-10 for 1 h (c) and quantification of protein levels (d). e–i BMMs isolated from eight-week-old WT and Gpr54^−/− mice were stimulated with M-CSF (10 ng/ml) and RANKL (50 ng/ml) for 5–7 days. Representative TRAP staining images are shown. Scale bar, 250 µm (e) and the number of osteoclasts/well was counted (f). Phalloidin staining of F-actin ring is shown. Scale bar, 250 µm, 50 µm (g), the area (h) and nuclei numbers (i) per actin ring were counted. j, k BMMs isolated from eight-week-old WT and Gpr54^−/− mice were cultured in vitro on dentin slices, and after incubation with M-CSF (10 ng/ml) and RANKL (50 ng/ml) for 5–7 days, the pits formed by osteoclast absorption activity were scanned by confocal microscopy (x, y, and z sections). Scale bar, 125 µm (j), and pits depth were quantified by confocal microscopy (k). Data represent means ± SEM. P values were determined by two-way ANOVA analysis (b), one-way ANOVA analysis (d, f, k), or two-tailed Student’s t-test (h, i), Representative results were obtained from at least three independent experiments. Source data are provided as a Source Data file.
Whole-cell proteins were extracted using 1x RIPA buffer (25 mM Tris, pH7.5, 150 mM NaCl, 0.5% Sodium deoxycholate, 1% Triton-X-100) supplemented with protease inhibitors (Complete Mini, Roche) and phosphatase inhibitors (phosphatase inhibitor cocktail set I and II, Calbiochem). Immunoprecipitation and immunoblotting with indicated antibodies were performed as described in Supplementary Table 1. Image Jsoftware (V1.52) was used for quantification analysis. Uncropped and unprocessed blots are presented in the Supplementary Information file.
Supplementary Fig. 1 a, b IB analysis of whole cell lysates (WCL) derived from BMMs isolated from eight-week-old wild-type (WT) and Gpr54 ^-/- mice. BMMs were starved in serum-free α-MEM for 4 hours and then treated with indicated doses of Kp-10 for 1 hour and followed by the addition of 50 ng/mL M-CSF, 100 ng/mL RANKL for another 30 minutes (a) and quantification of protein levels (b). c, d Elisa assay showing Kisspeptins derived from the process of osteoblast or osteoclast differentiation in vitro. Kisspeptins normalization was based on the same number of MSCs, BMMs which were seeded on the plates before differentiation stimulation (c), and serum Kisspeptins from Sham (n=8) and OVX (n=7) mice (d). Representative results were obtained from at least three independent experiments. Error bars are ± SEM. P-values were determined by one-way ANOVA analysis (a) or two-tailed Student’s t-test (b). *P <0.05, ***P <0.001, ****P <0.0001. Representative results were obtained from at least three independent experiments. Source data are provided as a Source Data file.

Q: Which osteoclast formation [1] does the source give for Kisspeptin-10 [Kp-10] here?
A: suppressed osteoclast formation; also recorded: dose-dependently suppressed

Q: And the “co-localization of Dusp18 with Gpr54 in the plasma membrane” value [2]?
A: colocalized with Gpr54 in the plasma membrane especially after treatment of Kp-10

Q: What about the “co-localization of Dusp18 with Src in the plasma membrane” value [2] of the same substance?
A: colocalized with Src in the plasma membrane especially after treatment with Kp-10

Q: And the “co-localization of Src with Gpr54 on the membrane” value [2]?
A: co-localized on the membrane with Gpr54 especially after Kp-10 stimulation

Q: And the “phosphatases increasing after Kp-10 stimulation” value [3]?
A: three increasing phosphatases including DUSP18, PTPN6 and PPP1CA were identified

Q: And the “Src phosphorylation, 10 nM” value (Src (Y416); 10 nM Kp-10)?
A: more obviously blocked

Q: What about the Src phosphorylation (Src (Y416); Dusp18-depleted BMMs) of the same substance?
A: failed to do so

Q: And the “phosphorylation of Src (Y416)” value (Src (Y416); Gpr54 WT osteoclasts/BMMs)?
A: effectively reduced the phosphorylation of Src (Y416)

Q: And the “phosphorylation of Src (Y416)” value (Src (Y416); Gpr54 knockout osteoclasts/BMMs)?
A: failed to inhibit Src (Y416) phosphorylation

Q: What about the “phosphorylation of Src” value (Src (Y416); Gq/11 KO BMMs) of the same substance?
A: failed to have a significant effect

Q: What about the “phosphorylation of Src” value (Src (Y416); WT BMMs (Gq/11 experiment)) of the same substance?
A: inhibited the phosphorylation of Src

Q: And the Src phosphorylation (Src (Y416); WT pre-osteoclasts/BMMs (Dusp18 experiment))?
A: blocked Src phosphorylation
